Experimental data taken from ChEMBL document CHEMBL1159117, “Anti-invasive and anti-angiogenic activities of naturally occurring dibenzodiazepine BU-4664L and its derivatives” (Bioorg Med Chem Lett, 2010).
Converted amounts (≈) assume the structure as drawn.

system: not listed separately; experiment: Antiinvasive activity against mouse Colon 26-L5 by Matrigel assay; type: functional; conditions: not given

| Compound | IC50 [µg/mL] |
| --- | --- |
| CC(=O)Oc1cc(OC(C)=O)c2c(c1)N(C/C=C(\C)CC/C=C(\C)CCC=C(C)C)C(=O)c1cccc(OC(C)=O)c1N2 | > 1 |
| COc1cc(OC)c2c(c1)N(CCC(C)CCCC(C)CCCC(C)C)C(=O)c1cccc(OC)c1N2 (stereo not drawn) | 1 (≈ 1.96 µM) |
| CC(C)CCCC(C)CCCC(C)CCN1C(=O)c2cccc(O)c2Nc2c(O)cc(O)cc21 (stereo not drawn) | > 1 |
| COc1cc(OC)c2c(c1)N(C/C=C(\C)CC/C=C(\C)CCC=C(C)C)C(=O)c1cccc(OC)c1N2 | 1 (≈ 1.98 µM) |
| CC(C)=CCC/C(C)=C/CC/C(C)=C/CN1C(=O)c2cccc(O)c2Nc2c(O)cc(O)cc21 [DIAZEPINOMICIN] | 1 (≈ 2.16 µM) |

system: not listed separately; experiment: Antiinvasive activity against mouse Colon 26-L5 at >1 ug/ml by Matrigel assay; type: functional; conditions: not given

| Compound | inhibition (INH) [%] |
| --- | --- |
| CC(=O)Oc1cc(OC(C)=O)c2c(c1)N(C/C=C(\C)CC/C=C(\C)CCC=C(C)C)C(=O)c1cccc(OC(C)=O)c1N2 | 0 |
| CC(C)CCCC(C)CCCC(C)CCN1C(=O)c2cccc(O)c2Nc2c(O)cc(O)cc21 (stereo not drawn) | 30 |

system: Renca; experiment: Antiinvasive activity against mouse Renca by Matrigel assay; type: functional, cell-based; conditions: not given

| Compound | IC50 [µg/mL] |
| --- | --- |
| CC(=O)Oc1cc(OC(C)=O)c2c(c1)N(C/C=C(\C)CC/C=C(\C)CCC=C(C)C)C(=O)c1cccc(OC(C)=O)c1N2 | > 1 |
| COc1cc(OC)c2c(c1)N(CCC(C)CCCC(C)CCCC(C)C)C(=O)c1cccc(OC)c1N2 (stereo not drawn) | 1 (≈ 1.96 µM) |
| CC(C)CCCC(C)CCCC(C)CCN1C(=O)c2cccc(O)c2Nc2c(O)cc(O)cc21 (stereo not drawn) | > 1 |
| COc1cc(OC)c2c(c1)N(C/C=C(\C)CC/C=C(\C)CCC=C(C)C)C(=O)c1cccc(OC)c1N2 | 0.78 (≈ 1.55 µM) |
| CC(C)=CCC/C(C)=C/CC/C(C)=C/CN1C(=O)c2cccc(O)c2Nc2c(O)cc(O)cc21 [DIAZEPINOMICIN] | 0.78 (≈ 1.69 µM) |

system: Renca; experiment: Antiinvasive activity against mouse Renca at >1 ug/ml by Matrigel assay; type: functional; conditions: not given

| Compound | inhibition (INH) [%] |
| --- | --- |
| CC(=O)Oc1cc(OC(C)=O)c2c(c1)N(C/C=C(\C)CC/C=C(\C)CCC=C(C)C)C(=O)c1cccc(OC(C)=O)c1N2 | 40 |
| COc1cc(OC)c2c(c1)N(CCC(C)CCCC(C)CCCC(C)C)C(=O)c1cccc(OC)c1N2 (stereo not drawn) | 44 |
| CC(C)CCCC(C)CCCC(C)CCN1C(=O)c2cccc(O)c2Nc2c(O)cc(O)cc21 (stereo not drawn) | 40 |

system: not listed separately; experiment: Cytotoxicity against mouse Colon 26-L5 cells; type: functional, cell-based; conditions: not given

| Compound | IC50 [µg/mL] |
| --- | --- |
| CC(=O)Oc1cc(OC(C)=O)c2c(c1)N(C/C=C(\C)CC/C=C(\C)CCC=C(C)C)C(=O)c1cccc(OC(C)=O)c1N2 | 7.6 (≈ 12.9 µM) |
| COc1cc(OC)c2c(c1)N(CCC(C)CCCC(C)CCCC(C)C)C(=O)c1cccc(OC)c1N2 (stereo not drawn) | > 10 |
| CC(C)CCCC(C)CCCC(C)CCN1C(=O)c2cccc(O)c2Nc2c(O)cc(O)cc21 (stereo not drawn) | 10 (≈ 21.3 µM) |
| COc1cc(OC)c2c(c1)N(C/C=C(\C)CC/C=C(\C)CCC=C(C)C)C(=O)c1cccc(OC)c1N2 | > 10 |
| CC(C)=CCC/C(C)=C/CC/C(C)=C/CN1C(=O)c2cccc(O)c2Nc2c(O)cc(O)cc21 [DIAZEPINOMICIN] | 7.8 (≈ 16.9 µM) |

system: not listed separately; experiment: Cytotoxicity against mouse Colon 26-L5 cells at >1 ug/ml; type: functional; conditions: not given

| Compound | inhibition (INH) [%] |
| --- | --- |
| COc1cc(OC)c2c(c1)N(CCC(C)CCCC(C)CCCC(C)C)C(=O)c1cccc(OC)c1N2 (stereo not drawn) | 8 |
| COc1cc(OC)c2c(c1)N(C/C=C(\C)CC/C=C(\C)CCC=C(C)C)C(=O)c1cccc(OC)c1N2 | 30 |

system: Renca; experiment: Cytotoxicity against mouse Renca cells; type: functional, cell-based; conditions: not given

| Compound | IC50 [µg/mL] |
| --- | --- |
| CC(=O)Oc1cc(OC(C)=O)c2c(c1)N(C/C=C(\C)CC/C=C(\C)CCC=C(C)C)C(=O)c1cccc(OC(C)=O)c1N2 | > 10 |
| COc1cc(OC)c2c(c1)N(CCC(C)CCCC(C)CCCC(C)C)C(=O)c1cccc(OC)c1N2 (stereo not drawn) | > 10 |
| CC(C)CCCC(C)CCCC(C)CCN1C(=O)c2cccc(O)c2Nc2c(O)cc(O)cc21 (stereo not drawn) | > 10 |
| COc1cc(OC)c2c(c1)N(C/C=C(\C)CC/C=C(\C)CCC=C(C)C)C(=O)c1cccc(OC)c1N2 | > 10 |
| CC(C)=CCC/C(C)=C/CC/C(C)=C/CN1C(=O)c2cccc(O)c2Nc2c(O)cc(O)cc21 [DIAZEPINOMICIN] | 8.3 (≈ 17.9 µM) |

system: Renca; experiment: Cytotoxicity against mouse Renca cells at >10 ug/ml; type: functional; conditions: not given

| Compound | inhibition (INH) [%] |
| --- | --- |
| CC(=O)Oc1cc(OC(C)=O)c2c(c1)N(C/C=C(\C)CC/C=C(\C)CCC=C(C)C)C(=O)c1cccc(OC(C)=O)c1N2 | 0 |
| COc1cc(OC)c2c(c1)N(CCC(C)CCCC(C)CCCC(C)C)C(=O)c1cccc(OC)c1N2 (stereo not drawn) | 31 |
| CC(C)CCCC(C)CCCC(C)CCN1C(=O)c2cccc(O)c2Nc2c(O)cc(O)cc21 (stereo not drawn) | 0 |
| COc1cc(OC)c2c(c1)N(C/C=C(\C)CC/C=C(\C)CCC=C(C)C)C(=O)c1cccc(OC)c1N2 | 40 |

system: HUVEC; experiment: Cytotoxicity against HUVEC cells; type: cell-based; conditions: Homo sapiens

| Compound | IC50 [µg/mL] |
| --- | --- |
| CC(=O)Oc1cc(OC(C)=O)c2c(c1)N(C/C=C(\C)CC/C=C(\C)CCC=C(C)C)C(=O)c1cccc(OC(C)=O)c1N2 | > 10 |
| COc1cc(OC)c2c(c1)N(CCC(C)CCCC(C)CCCC(C)C)C(=O)c1cccc(OC)c1N2 (stereo not drawn) | > 10 |
| CC(C)CCCC(C)CCCC(C)CCN1C(=O)c2cccc(O)c2Nc2c(O)cc(O)cc21 (stereo not drawn) | > 10 |
| COc1cc(OC)c2c(c1)N(C/C=C(\C)CC/C=C(\C)CCC=C(C)C)C(=O)c1cccc(OC)c1N2 | > 10 |
| CC(C)=CCC/C(C)=C/CC/C(C)=C/CN1C(=O)c2cccc(O)c2Nc2c(O)cc(O)cc21 [DIAZEPINOMICIN] | 2 (≈ 4.32 µM) |

system: not listed separately; experiment: Cytotoxicity against HUVEC cells at >10 ug/ml; type: cell-based; conditions: human, read-out: INH

| Compound | cytotoxicity [%] |
| --- | --- |
| CC(=O)Oc1cc(OC(C)=O)c2c(c1)N(C/C=C(\C)CC/C=C(\C)CCC=C(C)C)C(=O)c1cccc(OC(C)=O)c1N2 | 0 |
| COc1cc(OC)c2c(c1)N(CCC(C)CCCC(C)CCCC(C)C)C(=O)c1cccc(OC)c1N2 (stereo not drawn) | 32 |
| CC(C)CCCC(C)CCCC(C)CCN1C(=O)c2cccc(O)c2Nc2c(O)cc(O)cc21 (stereo not drawn) | 0 |
| COc1cc(OC)c2c(c1)N(C/C=C(\C)CC/C=C(\C)CCC=C(C)C)C(=O)c1cccc(OC)c1N2 | 0 |

system: not listed separately; experiment: Antiinvasive activity against mouse Colon 26-L5 assessed as inhibition of cell migration after 6 hrs by Matrigel assay; type: functional; conditions: not given

| Compound | IC50 [µg/mL] |
| --- | --- |
| CC(C)CCCC(C)CCCC(C)CCN1C(=O)c2cccc(O)c2Nc2c(O)cc(O)cc21 (stereo not drawn) | > 1 |
| COc1cc(OC)c2c(c1)N(C/C=C(\C)CC/C=C(\C)CCC=C(C)C)C(=O)c1cccc(OC)c1N2 | 0.67 (≈ 1.33 µM) |
| CC(C)=CCC/C(C)=C/CC/C(C)=C/CN1C(=O)c2cccc(O)c2Nc2c(O)cc(O)cc21 [DIAZEPINOMICIN] | 0.63 (≈ 1.36 µM) |

system: HUVEC; experiment: Antiangiogenic activity against HUVEC cells assessed as inhibition of vascular formation after 6 hrs by […]; type: functional, cell-based; conditions: Homo sapiens

| Compound | IC50 [µg/mL] |
| --- | --- |
| CC(=O)Oc1cc(OC(C)=O)c2c(c1)N(C/C=C(\C)CC/C=C(\C)CCC=C(C)C)C(=O)c1cccc(OC(C)=O)c1N2 | > 1 |
| COc1cc(OC)c2c(c1)N(CCC(C)CCCC(C)CCCC(C)C)C(=O)c1cccc(OC)c1N2 (stereo not drawn) | > 1 |
| CC(C)CCCC(C)CCCC(C)CCN1C(=O)c2cccc(O)c2Nc2c(O)cc(O)cc21 (stereo not drawn) | 0.23 (≈ 0.491 µM) |
| COc1cc(OC)c2c(c1)N(C/C=C(\C)CC/C=C(\C)CCC=C(C)C)C(=O)c1cccc(OC)c1N2 | 0.11 (≈ 0.218 µM) |
| CC(C)=CCC/C(C)=C/CC/C(C)=C/CN1C(=O)c2cccc(O)c2Nc2c(O)cc(O)cc21 [DIAZEPINOMICIN] | 0.72 (≈ 1.56 µM) |
| CO[C@@H]1[C@H](OC(=O)/C=C/C=C/C=C/C=C/C(=O)O)CC[C@]2(CO2)[C@H]1[C@@]1(C)O[C@@H]1CC=C(C)C [FUMAGILLIN] | 0.034 (≈ 0.0741 µM) |

biological target: 72 kDa type IV collagenase (Homo sapiens, UniProt P08253); experiment: Inhibition of MMP2; conditions: not given
Sequence (P08253 whole entry): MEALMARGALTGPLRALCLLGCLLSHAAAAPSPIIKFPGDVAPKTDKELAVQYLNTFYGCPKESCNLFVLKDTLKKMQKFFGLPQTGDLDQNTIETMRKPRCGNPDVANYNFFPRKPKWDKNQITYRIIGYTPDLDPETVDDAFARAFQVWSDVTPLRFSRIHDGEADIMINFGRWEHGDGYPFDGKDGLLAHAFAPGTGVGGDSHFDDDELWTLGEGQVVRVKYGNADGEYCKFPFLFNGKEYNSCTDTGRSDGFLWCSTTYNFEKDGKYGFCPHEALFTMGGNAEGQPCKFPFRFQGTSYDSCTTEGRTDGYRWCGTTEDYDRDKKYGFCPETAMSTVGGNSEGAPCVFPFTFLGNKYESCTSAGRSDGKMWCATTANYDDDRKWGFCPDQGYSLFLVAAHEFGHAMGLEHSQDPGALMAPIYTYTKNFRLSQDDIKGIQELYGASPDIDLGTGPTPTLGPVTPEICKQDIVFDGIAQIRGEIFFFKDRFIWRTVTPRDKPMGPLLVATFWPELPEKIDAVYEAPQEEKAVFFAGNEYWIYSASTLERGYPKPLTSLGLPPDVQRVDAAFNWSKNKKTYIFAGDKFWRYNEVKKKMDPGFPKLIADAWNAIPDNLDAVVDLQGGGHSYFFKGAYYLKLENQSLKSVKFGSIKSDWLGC

| Compound | IC50 [nM] |
| --- | --- |
| CC(C)=CCC/C(C)=C/CC/C(C)=C/CN1C(=O)c2cccc(O)c2Nc2c(O)cc(O)cc21 [DIAZEPINOMICIN] | 994 |

biological target: Matrix metalloproteinase-9 (Homo sapiens, UniProt P14780); experiment: Inhibition of MMP9; conditions: not given
Sequence (P14780 whole entry): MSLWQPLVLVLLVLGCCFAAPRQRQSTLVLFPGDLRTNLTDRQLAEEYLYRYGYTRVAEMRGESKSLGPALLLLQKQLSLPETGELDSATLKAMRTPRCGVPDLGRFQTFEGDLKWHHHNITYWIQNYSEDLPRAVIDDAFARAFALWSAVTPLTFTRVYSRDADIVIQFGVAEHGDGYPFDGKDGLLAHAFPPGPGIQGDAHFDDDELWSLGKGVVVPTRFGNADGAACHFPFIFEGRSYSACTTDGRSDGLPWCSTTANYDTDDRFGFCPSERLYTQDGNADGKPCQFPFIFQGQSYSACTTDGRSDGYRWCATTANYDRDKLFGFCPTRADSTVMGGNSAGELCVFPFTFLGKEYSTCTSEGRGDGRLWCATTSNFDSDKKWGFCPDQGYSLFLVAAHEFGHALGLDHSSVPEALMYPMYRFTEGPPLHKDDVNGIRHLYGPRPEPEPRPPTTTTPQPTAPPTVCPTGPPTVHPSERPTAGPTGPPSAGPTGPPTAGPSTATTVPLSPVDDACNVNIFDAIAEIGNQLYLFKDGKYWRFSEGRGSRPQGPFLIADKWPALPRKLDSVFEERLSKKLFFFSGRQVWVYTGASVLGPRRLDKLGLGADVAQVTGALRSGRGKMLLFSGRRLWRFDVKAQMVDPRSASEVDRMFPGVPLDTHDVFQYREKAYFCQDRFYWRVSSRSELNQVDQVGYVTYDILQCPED

| Compound | IC50 [nM] |
| --- | --- |
| CC(C)=CCC/C(C)=C/CC/C(C)=C/CN1C(=O)c2cccc(O)c2Nc2c(O)cc(O)cc21 [DIAZEPINOMICIN] | 1300 |

system: HUVEC; experiment: Antiangiogenic activity against HUVEC cells assessed as inhibition of vascular formation at >1 ug/ml after 6 hrs by […]; type: functional, Homo sapiens; conditions: not given

| Compound | inhibition (INH) [%] |
| --- | --- |
| CC(=O)Oc1cc(OC(C)=O)c2c(c1)N(C/C=C(\C)CC/C=C(\C)CCC=C(C)C)C(=O)c1cccc(OC(C)=O)c1N2 | 0 |
| COc1cc(OC)c2c(c1)N(CCC(C)CCCC(C)CCCC(C)C)C(=O)c1cccc(OC)c1N2 (stereo not drawn) | 30 |

system: not listed separately; experiment: Antiinvasive activity against mouse Colon 26-L5 assessed as inhibition of cell migration at >1 ug/ml after 6 hrs by Matrigel assay; type: functional; conditions: not given

| Compound | inhibition (INH) [%] |
| --- | --- |
| CC(C)CCCC(C)CCCC(C)CCN1C(=O)c2cccc(O)c2Nc2c(O)cc(O)cc21 (stereo not drawn) | 22 |

system: HUVEC; experiment: Antiinvasive activity against HUVEC assessed as inhibition of cell migration after 6 hrs by Matrigel assay; type: functional, cell-based; conditions: Homo sapiens

| Compound | IC50 [µg/mL] |
| --- | --- |
| CC(C)CCCC(C)CCCC(C)CCN1C(=O)c2cccc(O)c2Nc2c(O)cc(O)cc21 (stereo not drawn) | 0.0024 (≈ 0.00512 µM) |
| COc1cc(OC)c2c(c1)N(C/C=C(\C)CC/C=C(\C)CCC=C(C)C)C(=O)c1cccc(OC)c1N2 | 0.0076 (≈ 0.0151 µM) |
| CC(C)=CCC/C(C)=C/CC/C(C)=C/CN1C(=O)c2cccc(O)c2Nc2c(O)cc(O)cc21 [DIAZEPINOMICIN] | 0.43 (≈ 0.93 µM) |
| CO[C@@H]1[C@H](OC(=O)/C=C/C=C/C=C/C=C/C(=O)O)CC[C@]2(CO2)[C@H]1[C@@]1(C)O[C@@H]1CC=C(C)C [FUMAGILLIN] | 0.023 (≈ 0.0502 µM) |
